Entries after “also recorded” stand apart in the source; their conditions may differ.
Experiments:
[1] = test system: bEND3 cells; experiment: OGD-induced claudin-5 redistribution between subcellular fractions, Western blot; assay type: cell-based, Mouse; details: SB-3CT, 2 h OGD; Western blot of subcellular fractions
Description: OGD treatment. To mimic acute ischemia-like conditions in vitro, bEND3 cells were exposed to OGD for 2 h as we described previously (Furuichi et al., 2005). In brief, confluent bEND3 cells were subjected to an ischemic injury by transferring cultures to glucose free medium (DMEM without glucose) pre-equilibrated with 95% N2 and 5% CO2. Cells were then incubated in a humidified airtight chamber (Billups-Rothberg Inc.) equipped with an air lock and flushed with 95% N2 and 5% CO2 for 15 min. The chamber was then sealed and kept at 37° C. for another 105 min. The oxygen concentration was below 0.2% as monitored by an oxygen analyzer (Sable Systems). Control cultures were incubated with normal DMEM medium without FBS for 2 h at 37° C. in 95% air and 5% CO2. Immediately after OGD treatment, the conditioned media (CM) and cells were collected separately for further analyses.
Preparation of total cell lysate, subcellular fractions. To reveal a redistribution of MMP-2/9, Caveolin-1 (Cav-1) and TJ proteins in OGD-treated bEnd3 cells, three subcellular fractions including membranous, cytosolic, and cytoskeletal fractions were extracted using ProteoExtract Subcellular Proteome Extraction Kit (Calbiochem) according to manufacturer's instruction. […]

[2] = test system: bEND3 cells; experiment: OGD-induced occludin degradation in bEND3 cells, Western blot of total cellular extracts; assay type: cell-based, Mouse
Description: (§1) Cell culture. Mouse brain microvascular endothelial cells bEND3 (American Type Culture Collection) were grown as a monolayer in DMEM with 15% fetal bovine serum (FBS), 100 U/ml penicillin and 100 μg/ml streptomycin at 37° C. in a humidified incubators with 5% CO2 and 95% room air. The cells were subcultured into 60 mm dishes coated with type I collagen (Nakamuta et al., 2005) and allowed to grow to confluence before exposure to OGD for 2 h. After OGD treatment, cell toxicity was measured by lactate dehydrogenase (LDH) assay using a CytoTox 96 Non-Radioactive Cytotoxicity Assay Kit (Promega). Besides endothelial cells, we also tested the effect of OGD on MMP-2/9 secretion in two mouse neural cell lines, C8-D1A (astrocyte) and […]. Both cell lines were purchased from American Type Culture Collection. C8-D1A cells and SH-SY5Y cells were cultured in DMEM or DMEM/F12 (1:1) (Sigma) containing 10% FBS, 100 U/ml penicillin and 100 μg/ml streptomycin, respectively. These cells were allowed to grow to 80-90% confluence before exposure to 2-h OGD treatment.
(§2) OGD treatment. To mimic acute ischemia-like conditions in vitro, bEND3 cells were exposed to OGD for 2 h as we described previously (Furuichi et al., 2005). […] The oxygen concentration was below 0.2% as monitored by an oxygen analyzer (Sable Systems). […]

[3] = test system: bEND3 cells; experiment: Immunostaining of occludin in OGD-treated bEND3 cells (confocal); assay type: cell-based, Mouse
Description: as §1, §2

[4] = molecular target: T1, occludin (UniProt Q61146)
T1 sequence: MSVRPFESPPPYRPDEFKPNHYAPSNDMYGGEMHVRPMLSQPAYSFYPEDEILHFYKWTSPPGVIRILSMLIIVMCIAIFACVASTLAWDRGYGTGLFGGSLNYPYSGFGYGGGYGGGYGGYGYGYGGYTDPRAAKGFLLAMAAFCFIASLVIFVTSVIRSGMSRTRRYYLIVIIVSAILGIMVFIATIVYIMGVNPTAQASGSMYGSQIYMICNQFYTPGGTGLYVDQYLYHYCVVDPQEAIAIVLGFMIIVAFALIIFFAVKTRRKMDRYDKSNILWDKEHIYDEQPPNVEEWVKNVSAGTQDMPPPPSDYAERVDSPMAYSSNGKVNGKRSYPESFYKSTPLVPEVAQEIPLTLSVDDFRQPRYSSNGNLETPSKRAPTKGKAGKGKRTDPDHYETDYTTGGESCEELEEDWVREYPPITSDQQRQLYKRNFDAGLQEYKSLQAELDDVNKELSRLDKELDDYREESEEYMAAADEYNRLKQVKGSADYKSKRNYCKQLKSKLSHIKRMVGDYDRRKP

[5] = tPA thrombolysis, cited from earlier work

For `O=S(=O)(CC1CS1)c1ccc(Oc2ccccc2)cc1` (centres unmarked) [SB-3CT], the “OGD-induced claudin-5 redistribution between subcellular fractions” value [1] was “had no effect on its redistribution between subcellular fractions; also recorded: had no effect on OGD-induced claudin-5 redistribution”, the “OGD-induced occludin degradation (occludin protein in total cellular extracts)” value ([2]; SB-3CT 10 μM, 2 h before and during 2 h OGD, Western blot, vs vehicle (DMSO) plus OGD) was “completely abolished OGD-induced occludin reduction; also recorded: completely inhibited OGD-induced occludin degradation” and the “occludin level in control (non-OGD) bEND3 cells” value ([2]; SB-3CT-treated control cells compared to vehicle-treated cells (DMSO)) was “slight increase (not statistically significant) in occludin level”. The “occludin immunostaining reduction in OGD-treated cells” value ([3]; SB-3CT pretreatment, 2 h OGD, confocal microscopy) was “completely inhibited occludin reduction in OGD-treated cells” and the “occludin immunostaining in control cells” value ([3]; SB-3CT-treated control cells vs vehicle-treated control cells) was “slight stronger immunostaining (brighter fluorescence) for occludin”.
With active MMP-9 the “occludin degradation in bEND3 extracts” value [4] was “active MMP-9-induced occludin degradation”.
In the case of “tPA: tissue plasminogen activator, the only FDA-approved therapy for acute ischemic stroke”, the “mortality rate in stroke patients who have such bleeding” value ([5]; patients with symptomatic ICH) is given as 50% and the “increase in the incidence of symptomatic ICH” value ([5]; stroke patients) is given as 10 fold.
